Laboratory results reported in patent US10231939B2, “Hydroxytyrosol and oleuropein compositions for induction of DNA damage, cell death and LSD1 inhibition” (priority 2012, dated 2019).
Several values for one entry are separate records, joined by “and”; a condition that tells them apart may be missing. Identical values can stand only once.

System: K562 cells
Experiment: mRNA-Sequencing, K562 cells
Assay type: cell-based, human
Conditions: 24 hours
Description: Cells were seeded at densities of 1×10^6/mL in culture flasks (Nalge Nunc, New York, USA) and treated with hydroxytyrosol (0, 20, 100 μM), for 24 hours at 37° C., 5% (v/v) CO2. mRNA sequencing was performed by TRIZOL extraction and library preparation using Illumina kits according to manufacturer's protocols. Next generation sequencing (NGS) was performed at a depth of approximately 20 million mapped reads per sample to determine the effect of hydroxytyrosol on genome-wide gene expression, in human erythroleukemic K562 cells and human keratinocytes (24 hr treatment, 20 and 100 μM). Reads generated by the Illumina base calling software V1.6 were aligned with Burrows Wheeler Aligner to the human transcriptome database curated by RefSeq (Hg18 build). Raw counts were normalized to adjust for slightly differing data volume across lanes giving the widely used score reads per transcript per million reads. These scores were used to determine relative fold changes and the conventionally used ±1.5 fold-change, which is discernible with qRT-PCR, was defined a significant change in expression. The online program MetaCore (GeneGo Inc. St. Joseph, MI, USA) was used for pathway analysis.
Cells were seeded at densities of 1×10^6/mL in culture flasks (Nalge Nunc, New York, USA) and K562 cells were treated with or without 100 μM hydroxytyrosol for 24 hours at 37° C., 5% (v/v) CO2. mRNA sequencing was performed by TRIZOL extraction and library preparation using Illumina kits according to manufacturer's protocols. Next generation sequencing (NGS) was performed at a depth of approximately 20 million mapped reads per sample. Reads generated by the Illumina base calling software V1.6 were aligned with Burrows Wheeler Aligner to the human transcriptome database curated by RefSeq (Hg18 build). Raw counts were normalized to adjust for slightly differing data volume across lanes giving the widely used score reads per transcript per million reads. These scores were used to determine relative fold changes and the conventionally used ±1.5 fold-change, which is discernible with qRT-PCR, was defined a significant change in expression. The online program MetaCore (GeneGo Inc. St. Joseph, MI, USA) was used for pathway analysis. The Warburg gene-set shown in Table 10 was used to investigate changes in Warburg-related genes in human erythroleukemic compared to normal peripheral blood mononuclear cells and changes in expression of Warburg-related genes following incubation of K562 cells with hydroxytyrosol.

[1] = 100 μM HT, negative = down-regulated
[2] = 100 μM HT, negative = down-regulated, listed as hydroxytyrosol
[3] = 100 μM hydroxytyrosol, unsigned

For `OCCc1ccc(O)c(O)c1` [HT, 4-(2-hydroxyethyl)-1,2-benzenediol], the “HDAC9 expression Fold Change (DOWN)” value (20 μM HT) was 1.82 fold and 2.00 fold, the “KDM4C expression Fold Change (DOWN)” value (20 μM HT) was 1.61 fold and the “NCOA2 expression Fold Change (DOWN)” value (20 μM HT) was 1.63 fold. The “PHF8 expression Fold Change (DOWN)” value (20 μM HT) was 1.62 fold, the “PRDM1 expression Fold Change (DOWN)” value (20 μM HT) was 1.68 fold and the “PRDM6 expression Fold Change (UP)” value (20 μM HT) was 3.50 fold. The “PRDM12 expression Fold Change (DOWN)” value (20 μM HT) was 1.50 fold, the “PRMT8 expression Fold Change (DOWN)” value (20 μM HT) was 2.13 fold and the “EHMT1 expression Fold Change (DOWN)” value (100 μM HT) was 1.63 fold. For the same compound, the “GTF3C4 expression Fold Change (DOWN)” value (100 μM HT) was 1.55 fold, the “HDAC7 expression Fold Change (DOWN)” value (100 μM HT) was 1.76 fold and 1.78 fold and the “HDAC9 expression Fold Change (UP)” value (100 μM HT) was 2.05 fold and 1.50 fold. The “KDM4A expression Fold Change (UP)” value (100 μM HT) was 1.71 fold, the “KDM4C expression Fold Change (DOWN)” value (100 μM HT) was 1.66 fold and the “KDM6B expression Fold Change (UP)” value (100 μM HT) was 1.70 fold. For the same compound, the “MLL3 expression Fold Change (DOWN)” value (100 μM HT) was 1.68 fold, the “NCOA2 expression Fold Change (DOWN)” value (100 μM HT) was 1.50 fold and the “NPM2 expression Fold Change (DOWN)” value (100 μM HT) was 3.33 fold. The “PPARGC1A expression Fold Change (UP)” value (100 μM HT) was 2.00 fold, the “PRDM6 expression Fold Change (DOWN)” value (100 μM HT) was 2.00 fold and the “PRDM9 expression Fold Change (UP)” value (100 μM HT) was 1.85 fold. The “PRDM10 expression Fold Change (DOWN)” value (100 μM HT) was 1.92 fold, the “PRDM12 expression Fold Change (UP)” value (100 μM HT) was 2.00 fold and the “PRDM15 expression Fold Change (DOWN)” value (100 μM HT) was 1.78 fold. For the same compound, the “PRMT8 expression Fold Change (DOWN)” value (100 μM HT) was 1.89 fold, the “RPS6KA5 expression Fold Change (UP)” value (100 μM HT) was 1.56 fold and the “SETD1A expression Fold Change (DOWN)” value (100 μM HT) was 1.56 fold. For the same compound, the “SETD7 expression Fold Change (UP)” value (100 μM HT) was 3.41 fold, the “SMYD3 expression Fold Change (UP)” value (100 μM HT) was 1.60 fold and 1.57 fold and the “ACLY expression Fold Change, K562 + 100 μM HT” value [1] was −1.60 fold. For the same compound, the “AKT3 expression Fold Change, K562 + 100 μM HT” value [1] was 2.04 fold, the “BBC3 expression Fold Change, K562 + 100 μM HT” value [1] was 2.66 fold and the “C12orf5 expression Fold Change, K562 + 100 μM HT” value [1] was 3.57 fold. The “CASP4 expression Fold Change, K562 + 100 μM HT” value [1] was 1.87 fold, the “CASP7 expression Fold Change, K562 + 100 μM HT” value [1] was 2.27 fold and the “CASP8 expression Fold Change, K562 + 100 μM HT” value [1] was 1.62 fold. The “ME1 expression Fold Change, K562 + 100 μM HT” value [1] was 2.22 fold, the “PFKFB2 expression Fold Change, K562 + 100 μM HT” value [1] was −1.53 fold and the “PFKFB4 expression Fold Change, K562 + 100 μM HT” value [1] was −1.79 fold. For the same compound, the “SLC1A4 expression Fold Change, K562 + 100 μM HT” value [1] was 4.28 fold, the “SREBF1 expression Fold Change, K562 + 100 μM HT” value [1] was −1.69 fold and the “TFR2 expression Fold Change, K562 + 100 μM HT” value [1] was −1.90 fold. The “TP53 expression Fold Change, K562 + 100 μM HT” value [1] was 2.30 fold, the “VEGFA expression Fold Change, K562 + 100 μM HT” value [1] was 2.65 fold and the “BBC3 expression Fold Change, K562 + 100 μM HT” value [2] was 2.29 fold. For the same compound, the “CASP7 expression Fold Change, K562 + 100 μM HT” value [2] was 2.01 fold, the “TP53 expression Fold Change, K562 + 100 μM HT” value [2] was 1.91 fold and the “differentially expressed Warburg-related genes reversing expression towards that observed in PBMC cells” value (100 μM hydroxytyrosol) was 87%. The “ACLY down-regulated, fold change” value [3] was 1.59 fold, the “PFKB2 down-regulated, fold change” value [3] was 1.53 fold and the “PFKFB4 down-regulated, fold change” value [3] was 1.79 fold. For the same compound, the “transferrin receptor 2 (TRF2) down-regulated” value [3] was 1.9 fold and the “differential expression of the Warburg-related genes regulated in K562 vs PBMC” value (100 μM hydroxytyrosol, share of the 51 genes) was 30%.
